According to patent US20220349825A1, “METHOD AND DEVICE FOR MEASURING CELL CONTRACTILITY” (THE ROYAL INSTITUTION FOR THE ADVANCEMENT OF …, priority 2021, published 2022):

System: NIH-3T3 fibroblast cells
Experiment: time-dependent coverage-based (PaCS) measurement of cellular forces of fibroblasts on square patterns on 12 kPa PDMS, compared with TFM
Format: cell-based, mouse
Conditions: 2 μM Cytochalasin D at end of 18 hours measurement; square patterns ~2400 μm^2; 12 kPa PDMS substrate
Description: The ability of the coverage-based technique to resolve time-dependent work was further tested. Fibroblast cellular forces on square patterns (˜2400 μm^2) on PDMS substrates (12 kPa) for 18 hours were measured; to further test the sensitivity of this technique the cellular forces was inhibited by depolymerizing actin using Cytochalasin D (Cyto D) in the last few hours of measurement. Using time-dependent coverage-based technique, cellular forces with time was measured when compared to TFM measurements, even after the Cyto D treatment, as presented in FIGS. 9c and 9d. […] Also the low strain energy values of ˜0.1 pJ indicate minimum resolution of the measurement on 12 kPa PDMS substrate. […]
After 16-18 hours of cell seeding, cells were stained with cell tracker green CMFDA (Thermofisher) to detect cell boundaries, and the plates were transferred to a lab-built heated stage perfused with 5% CO2 and mounted on a confocal microscope (Leica TCS SP8 with a 10×0.4 NA objective). With this setup, cells were imaged with transmission and fluorescence microscopy for extended periods, while maintaining a controlled culture environment
In PaCS, cells are confined on adhesive micropatterns of known area on linearly elastic silicone substrates. […] First, the deformed and undeformed pattern area are measured by thresholding the fluorescent pattern images. […]

C=C1[C@@H](C)[C@H]2[C@H](Cc3ccccc3)NC(=O)[C@]23[C@H](OC(C)=O)/C=C/[C@@](C)(O)C(=O)[C@@H](C)C/C=C/[C@H]3[C@@H]1O [Cytochalasin D]
cellular force (contractility) after drug treatment: decreased cellular force | pattern area after drug treatment: increased pattern area
